The target in series [1] is T1, dSARM1^ARM (Drosophila SARM1 ARM domain) (Drosophila melanogaster, UniProt Q6IDD9).
T1 sequence (Q6IDD9 307-678): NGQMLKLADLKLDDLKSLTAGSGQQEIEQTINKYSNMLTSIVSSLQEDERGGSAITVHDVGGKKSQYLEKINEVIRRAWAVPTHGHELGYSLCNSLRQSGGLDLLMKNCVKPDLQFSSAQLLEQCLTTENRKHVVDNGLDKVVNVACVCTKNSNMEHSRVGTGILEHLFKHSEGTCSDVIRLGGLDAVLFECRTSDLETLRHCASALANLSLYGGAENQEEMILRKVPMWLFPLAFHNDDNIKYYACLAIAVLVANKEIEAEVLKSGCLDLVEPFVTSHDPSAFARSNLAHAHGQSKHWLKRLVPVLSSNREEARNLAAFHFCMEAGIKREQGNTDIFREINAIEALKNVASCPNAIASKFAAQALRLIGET
Put plainly: ITC. The series is classed as binding.

Series [2] has as its target dSARM1^ARM (Drosophila SARM1 ARM domain) (Drosophila melanogaster, UniProt Q6IDD9, R437A). Put plainly: ITC. The series is classed as binding.
Series [3] concerns the molecule itself. Put plainly: cryo-EM structure.

dSARM1^ARM (Drosophila SARM1 ARM domain) (Drosophila melanogaster, UniProt Q6IDD9, R437A), sequence (Q6IDD9 307-678 R437A): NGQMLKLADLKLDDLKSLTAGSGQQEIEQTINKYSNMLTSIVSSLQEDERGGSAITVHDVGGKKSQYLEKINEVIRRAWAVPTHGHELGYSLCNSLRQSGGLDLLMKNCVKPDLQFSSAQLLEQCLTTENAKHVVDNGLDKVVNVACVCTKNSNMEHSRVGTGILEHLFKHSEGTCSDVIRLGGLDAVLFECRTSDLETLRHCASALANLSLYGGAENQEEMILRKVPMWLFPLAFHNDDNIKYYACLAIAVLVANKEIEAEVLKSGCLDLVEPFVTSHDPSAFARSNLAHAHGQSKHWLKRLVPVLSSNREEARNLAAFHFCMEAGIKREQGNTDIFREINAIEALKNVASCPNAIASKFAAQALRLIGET

`NC(=O)c1ccc[n+]([C@@H]2O[C@H](COP(=O)([O-])OP(=O)(O)OC[C@H]3O[C@@H](n4cnc5c(N)ncnc54)[C@H](O)[C@@H]3O)[C@@H](O)[C@H]2O)c1` [NAD^+] showed a Kd in series [1] of 54.2 ± 6.4 µM.

For `NC(=O)c1ccc[n+]([C@@H]2O[C@H](COP(=O)([O-])O)[C@@H](O)[C@H]2O)c1` [NMN], the Kd in series [2] amounted to 12.45 ± 0.03 µM.

B1: human SARM1 lacking the mitochondrial localisation signal (residues 28-724) (enzyme, UniProt Q6SZW1-1 28-724, looked up)
chain: LAVPGPDGGGGTGPWWAAGGRGPREVSPGAGTEVQDALERALPELQQALSALKQAGGARAVGAGLAEVFQLVEEAWLLPAVGREVAQGLCDAIRLDGGLDLLLRLLQAPELETRVQAARLLEQILVAENRDRVARIGLGVILNLAKEREPVELARSVAGILEHMFKHSEETCQRLVAAGGLDAVLYWCRRTDPALLRHCALALGNCALHGGQAVQRRMVEKRAAEWLFPLAFSKEDELLRLHACLAVAVLATNKEVEREVERSGTLALVEPLVASLDPGRFARCLVDASDTSQGRGPDDLQRLVPLLDSNRLEAQCIGAFYLCAEAAIKSLQGKTKVFSDIGAIQSLKRLVSYSTNGTKSALAKRALRLLGEEVPRPILPSVPSWKEAEVQTWLQQIGFSKYCESFREQQVDGDLLLRLTEEELQTDLGMKSGITRKRFFRELTELKTFANYSTCDRSNLADWLGSLDPRFRQYTYGLVSCGLDRSLLHRVSEQQLLEDCGIHLGVHRARILTAAREMLHSPLPCTGGKPSGDTPDVFISYRRNSGSQLASLLKVHLQLHGFSVFIDVEKLEAGKFEDKLIQSVMGARNFVLVLSPGALDKCMQDHDCKDWVHKEIVTALSCGKNIVPIIDGFEWPEPQVLPEDMQAVLTFNGIKWSHEYQEATIEKIIRFLQGRSSRDSSAGSDTSLEGAAPMGPT
In the case of B1, the “stoichiometry N” value in series [3] amounted to 8.

Usually Kd stands for the equilibrium constant for the complex coming apart. A higher Kd goes with a looser complex. Usually stoichiometry N stands for a count of units in the complex or per binding partner.

(Values after publication PMC8174188 (Neuron, 2021).)
